Patent US9546145B2, “Combination therapy for the treatment of chronic renal failure with an angiotensin II receptor antagonist and beraprost” (Toray Industries, Inc., priority 2003, dated 2017)
Counter-ions that a name gives are not always drawn.

What was measured:
[1] = tested on: WKY rats with nephritis induced by rabbit anti-rat glomerular basement membrane antiserum (renal failure stage); assay: nephritis-induced renal failure model in rats, blood creatinine level; type: in vivo; details: for effect to suppress the progress of nephritis (raise in the blood creatinine level) / effect to suppress the progress of nephropathy (blood creatinine level): Example 1, FIG. 1; for effect to suppress the progress of nephritis (raise in the blood creatinine level): beraprost sodium 100 μg/kg BID and/or candesartan cilexetil 10 mg/kg OAD; for effect to suppress the progress of nephritis (raise in the blood creatinine level) / effect to suppress the progress of renal failure: compared with the control group; for effect to suppress the progress of nephropathy (blood creatinine level): increased dosage alone: beraprost sodium 300 μg/kg BID or candesartan cilexetil 30 mg/kg OAD, compared with BPS100+candesartan10 group; for blood creatinine level at 7 weeks after induction: started 2 weeks after antiserum
Description: After the start of the medication, blood was collected at one week intervals, and blood creatinine level was measured. To 9-week old WKY rats, rabbit anti-rat glomerular basement membrane antiserum was administered to induce nephritis. […] To 9-week old WKY rats, rabbit anti-rat glomerular basement membrane antiserum was administered to induce nephritis. […] At six weeks after the induction, blood creatinine level was measured to assess the progress of renal failure. […] To 9-week old WKY rats, rabbit anti-rat glomerular basement membrane antiserum was administered to induce nephritis. […] After the start of the medication, blood was collected at one week intervals, and blood creatinine level was measured. The data were plotted taking the reciprocal of the blood creatinine level measured for five weeks after the start of the medication along the ordinate and taking the time along the abscissa, and the slope of the regression line was defined as the rate of progress of renal failure of each animal. To 9-week old WKY rats, rabbit anti-rat glomerular basement membrane antiserum was administered to induce nephritis. […] After the start of the medication, blood was collected at one week intervals, and blood creatinine level was measured. The data were plotted taking the reciprocal of the blood creatinine level measured for five weeks after the start of the medication along the ordinate and taking the time along the abscissa, and the slope of the asymptote was defined as the rate of progress of renal failure of each animal. To 9-week old WKY rats, rabbit anti-rat glomerular basement membrane antiserum was administered to induce nephritis. […] After the start of the medication, blood was collected at one week intervals, and blood creatinine level was measured. The data were plotted taking the reciprocal of the blood creatinine level measured for six weeks after the start of the medication along the ordinate and taking the time along the abscissa, and the slope of the asymptote was defined as the rate of progress of renal failure of each animal.

[2] = tested on: WKY rats with nephritis induced by rabbit anti-rat glomerular basement membrane antiserum; assay: nephritis-induced renal failure model in rats, mortality / survival rate; type: in vivo; details: Example 7, FIG. 2; candesartan cilexetil 10 mg/kg OAD and/or beraprost sodium 100 μg/kg BID; compared with the control group
Description: To 9-week old WKY rats, rabbit anti-rat glomerular basement membrane antiserum was administered to induce nephritis. At two weeks after administering the antiserum, the animals were divided into the following 4 groups and medication was started. • 1) Control Group: 0.5% CMC(OAD)+distilled water (BID), n=11 • 2) Candesartan Group (Comparative Example): candesartan cilexetil 10 mg/kg (OAD)+distilled water (BID), n=11 • 3) BPS Group (Comparative Example): 0.5% CMC(OAD)+beraprost sodium 100 μg/kg (BID), n=11 • 4) Candesartan+BPS Group (this disclosure): candesartan cilexetil 10 mg/kg (OAD)+beraprost sodium 100 μg/kg (BID), n=12

[3] = tested on: glomerular nephritis model in rats; details: Kidney Int 1998, 53(5) 1314-20; cited from earlier work
[4] = tested on: patients suffering from diabetic nephropathy; details: Nephron 2002, 92(4): 788-96; cited from earlier work
[5] = tested on: patients suffering from diabetic nephropathy; details: N Engl J Med 2001, 345(12): 861-9; cited from earlier work
[6] = tested on: diabetic nephritis induced by streptozotocin in rats; details: J Hypertens Suppl 1993; 11 Suppl 5: S208-9; cited from earlier work
[7] = tested on: renal dysfunction induced by uninephrectomy and by loading high sodium and high protein; details: Am J Hypertens 1997 10: 209-16; cited from earlier work
[8] = tested on: diabetes mellitus model in rats; details: each drug individually or in combination, versus control group; Am J Hypertens 1997 10: 202-208; cited from earlier work
[9] = tested on: anti-Thyl-induced nephritis model; details: Am J Pathol 1993; 142(2): 441-50; cited from earlier work
diabetic nephropathy = details: compared with blood pressure control by a calcium antagonist; N Engl J Med 2001; 345(12): 851-60; cited from earlier work
[10] = Example 2, during medication, telmisartan 40 mg/kg OAD and/or beraprost sodium 100 μg/kg BID
[11] = Example 2, telmisartan 40 mg/kg OAD and/or beraprost sodium 100 μg/kg BID, mean ± S.E.
[12] = Example 3, losartan 30 mg/kg BID and/or beraprost sodium 100 μg/kg BID
[13] = Example 3, losartan 30 mg/kg BID and/or beraprost sodium 100 μg/kg BID, mean ± S.E.
[14] = Example 4, enalapril maleate 10 mg/kg OAD and/or beraprost sodium 100 μg/kg BID
[15] = Example 4, enalapril maleate 10 mg/kg OAD and/or beraprost sodium 100 μg/kg BID, mean ± S.E.
[16] = Example 4, slope of regression line of reciprocal blood creatinine over five weeks of medication, enalapril maleate 10 mg/kg OAD and/or beraprost sodium 100 μg/kg BID, mean ± S.E.
[17] = Example 5, lisinopril 10 mg/kg OAD and/or beraprost sodium 100 μg/kg BID
[18] = Example 5, lisinopril 10 mg/kg OAD and/or beraprost sodium 100 μg/kg BID, mean ± S.E.
[19] = Example 5, slope of reciprocal blood creatinine over five weeks of medication, lisinopril 10 mg/kg OAD and/or beraprost sodium 100 μg/kg BID, mean ± S.E.
[20] = Example 6, perindopril erbumine 10 mg/kg OAD and/or beraprost sodium 100 μg/kg BID
[21] = Example 6, slope of reciprocal blood creatinine over six weeks of medication, perindopril erbumine 10 mg/kg OAD and/or beraprost sodium 100 μg/kg BID

CC#CCC(C)[C@H](O)/C=C/[C@@H]1[C@H]2c3cccc(CCCC(=O)[O-])c3O[C@H]2C[C@H]1O.[Na+] (stereo partly drawn) [BPS, beraprost sodium]
effect to suppress the progress of nephritis (raise in the blood creatinine level) [1]: almost no difference | effect to suppress the progress of nephropathy (blood creatinine level) [1]: smaller than that observed in BPS100+candesartan10 group | effect to suppress the progress of renal failure [1, 10]: almost no difference | blood creatinine level at 7 weeks after induction [1, 11]: 1.56 ± 0.76 mg/dL | effect to suppress the progress of renal failure [1, 12]: no difference | blood creatinine level at 6 weeks after induction [1, 13]: 0.93 ± 0.18 mg/dL | effect to suppress the progress of renal failure [1, 14]: no difference | blood creatinine level at 6 weeks after induction [1, 15]: 0.93 ± 0.18 mg/dL | rate of progress of renal failure [1, 16]: 0.32 ± 0.04 dL/mg × week | effect to suppress the progress of renal failure [1, 17]: almost no difference | blood creatinine level at 6 weeks after induction [1, 18]: 1.49 ± 0.59 mg/dL | rate of progress of renal failure [1, 19]: 0.37 ± 0.07 dL/mg × week | blood creatinine level at 6 weeks after induction [1, 20]: 0.93 ± 0.18 mg/dL | effect to suppress the progress of renal failure [1, 20]: tendency to suppress the progress of renal failure | rate of progress of renal failure [1, 21]: 0.29 ± 0.03 dL/mg × week | mortality rate / survival rate [2]: no difference | urinary protein [3]: decreases urinary protein | urinary protein [4]: decreases urinary protein

CCOC(=O)[C@H](CCc1ccccc1)N[C@@H](C)C(=O)N1CCC[C@H]1C(=O)O [Enalapril, enalapril maleate]
effect to suppress the progress of renal failure [1, 14]: no difference | blood creatinine level at 6 weeks after induction [1, 15]: 1.83 ± 0.44 mg/dL | rate of progress of renal failure [1, 16]: 0.41 ± 0.04 dL/mg × week

NCCCC[C@H](N[C@@H](CCc1ccccc1)C(=O)O)C(=O)N1CCC[C@H]1C(=O)O [Lisinopril, lisinopril]
effect to suppress the progress of renal failure [1, 17]: almost no difference | blood creatinine level at 6 weeks after induction [1, 18]: 1.20 ± 0.34 mg/dL | rate of progress of renal failure [1, 19]: 0.39 ± 0.08 dL/mg × week

CCCCc1nc(Cl)c(CO)n1Cc1ccc(-c2ccccc2-c2nn[nH]n2)cc1 [Losartan, losartan]
effect to suppress the progress of renal failure [1, 12]: no difference | blood creatinine level at 6 weeks after induction [1, 13]: 1.94 ± 0.61 mg/dL | risk-lowering rate (doubling time of creatinine, dialysis, complicated risk of death) [5]: 16.1%

CCC[C@H](N[C@@H](C)C(=O)N1[C@H](C(=O)O)C[C@@H]2CCCC[C@@H]21)C(=O)OCC [Perindopril, perindopril erbumine]
blood creatinine level at 6 weeks after induction [1, 20]: 1.09 ± 0.42 mg/dL | effect to suppress the progress of renal failure [1, 20]: tendency to suppress the progress of renal failure | rate of progress of renal failure [1, 21]: 0.30 ± 0.05 dL/mg × week

CCCc1nc2c(C)cc(-c3nc4ccccc4n3C)cc2n1Cc1ccc(-c2ccccc2C(=O)O)cc1 [Telmisartan, telmisartan]
effect to suppress the progress of renal failure [1, 10]: suppressed | blood creatinine level at 7 weeks after induction [1, 11]: 0.93 ± 0.43 mg/dL | blood creatinine level at 8 weeks after induction (1 week after the end of the medication) [1, 11]: 1.18 ± 0.80 mg/dL | progress of renal failure / blood creatinine level at one week after the end of the medication ([1]; Example 2, telmisartan 40 mg/kg OAD with or without beraprost sodium 100 μg/kg BID): renal failure was progressed

CCOc1nc2cccc(C(=O)OC(C)OC(=O)OC3CCCCC3)c2n1Cc1ccc(-c2ccccc2-c2nn[nH]n2)cc1 (stereo not drawn) [candesartan, candesartan cilexetil]
effect to suppress the progress of nephritis (raise in the blood creatinine level) [1]: almost no difference | effect to suppress the progress of nephropathy (blood creatinine level) [1]: smaller than that observed in BPS100+candesartan10 group | mortality rate / survival rate [2]: no difference

CCC#CC[C@H](C)[C@H](O)C#C[C@@H]1[C@H]2C/C(=C/COCC(=O)O)C[C@H]2C[C@H]1O [cicaprost]
suppression of diabetic nephritis [6]: suppressed | suppression of renal dysfunction [7]: suppressed | renal function parameters such as urinary protein, damage of renal tissue [8]: less severe

CC#CCC(C)[C@H](O)/C=C/[C@@H]1[C@H]2C/C(=C/CCCC(=O)O)C[C@H]2C[C@H]1O (stereo partly drawn) [iloprost]
urinary protein [9]: decreased urinary protein

CCCCC1=NC2(CCCC2)C(=O)N1Cc1ccc(-c2ccccc2-c2nnn[nH]2)cc1 [irbesartan]
effect of suppressing the progress of diabetic nephropathy (diabetic nephropathy): superior
